Drawing on ChEMBL document CHEMBL2150974 (J Med Chem, 2012), this text covers inhibition and IC50 for seven molecules.

Calls of active or inactive are those of the source. The rule behind the calls is not given here.

Experiment [1] has as its system Serine/threonine-protein kinase B-raf (Homo sapiens), P15056 [V600E]. As to the kind of experiment: Inhibition of BRAF V600E mutant at 10 uM.
Experiment [2] has as its target Serine/threonine-protein kinase N1 (Homo sapiens) (UniProt Q16512). The experiment can be described thus: Inhibition of PRK1 at 10 uM.
Experiment [3] has as its target RAC-alpha serine/threonine-protein kinase (Homo sapiens) (UniProt P31749). As to the kind of experiment: Inhibition of AKT1 at 10 uM.
The target in experiment [4] is T1, Mitogen-activated protein kinase 14 (Homo sapiens, UniProt Q16539). The experiment can be described thus: Inhibition of p38alpha-dependent TNFalpha production in human whole blood.
T1 sequence (Q16539 whole entry): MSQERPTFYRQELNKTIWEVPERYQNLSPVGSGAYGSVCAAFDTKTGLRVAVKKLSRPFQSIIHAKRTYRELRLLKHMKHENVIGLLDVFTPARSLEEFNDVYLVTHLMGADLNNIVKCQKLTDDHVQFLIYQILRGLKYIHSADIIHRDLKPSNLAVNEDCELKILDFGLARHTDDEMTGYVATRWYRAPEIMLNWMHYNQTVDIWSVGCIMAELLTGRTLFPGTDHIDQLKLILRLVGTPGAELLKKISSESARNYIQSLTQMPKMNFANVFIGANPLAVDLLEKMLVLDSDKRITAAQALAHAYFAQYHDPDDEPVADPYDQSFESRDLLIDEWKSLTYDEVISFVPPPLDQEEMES
The target in experiment [5] is Focal adhesion kinase 1 (Homo sapiens) (UniProt Q05397). The experiment can be described thus: Inhibition of FAK at 10 uM.
Experiment [6] addresses Aurora kinase B (Homo sapiens) (UniProt Q96GD4). The experiment can be described thus: Inhibition of AuroraB at 10 uM.
Experiment [7] addresses BDNF/NT-3 growth factors receptor (Homo sapiens) (UniProt Q16620). The experiment can be described thus: Inhibition of TRKB at 10 uM.
The target of experiment [8] is T2, Serine/threonine-protein kinase PLK4 (Homo sapiens) (UniProt O00444).
T2 sequence (whole entry): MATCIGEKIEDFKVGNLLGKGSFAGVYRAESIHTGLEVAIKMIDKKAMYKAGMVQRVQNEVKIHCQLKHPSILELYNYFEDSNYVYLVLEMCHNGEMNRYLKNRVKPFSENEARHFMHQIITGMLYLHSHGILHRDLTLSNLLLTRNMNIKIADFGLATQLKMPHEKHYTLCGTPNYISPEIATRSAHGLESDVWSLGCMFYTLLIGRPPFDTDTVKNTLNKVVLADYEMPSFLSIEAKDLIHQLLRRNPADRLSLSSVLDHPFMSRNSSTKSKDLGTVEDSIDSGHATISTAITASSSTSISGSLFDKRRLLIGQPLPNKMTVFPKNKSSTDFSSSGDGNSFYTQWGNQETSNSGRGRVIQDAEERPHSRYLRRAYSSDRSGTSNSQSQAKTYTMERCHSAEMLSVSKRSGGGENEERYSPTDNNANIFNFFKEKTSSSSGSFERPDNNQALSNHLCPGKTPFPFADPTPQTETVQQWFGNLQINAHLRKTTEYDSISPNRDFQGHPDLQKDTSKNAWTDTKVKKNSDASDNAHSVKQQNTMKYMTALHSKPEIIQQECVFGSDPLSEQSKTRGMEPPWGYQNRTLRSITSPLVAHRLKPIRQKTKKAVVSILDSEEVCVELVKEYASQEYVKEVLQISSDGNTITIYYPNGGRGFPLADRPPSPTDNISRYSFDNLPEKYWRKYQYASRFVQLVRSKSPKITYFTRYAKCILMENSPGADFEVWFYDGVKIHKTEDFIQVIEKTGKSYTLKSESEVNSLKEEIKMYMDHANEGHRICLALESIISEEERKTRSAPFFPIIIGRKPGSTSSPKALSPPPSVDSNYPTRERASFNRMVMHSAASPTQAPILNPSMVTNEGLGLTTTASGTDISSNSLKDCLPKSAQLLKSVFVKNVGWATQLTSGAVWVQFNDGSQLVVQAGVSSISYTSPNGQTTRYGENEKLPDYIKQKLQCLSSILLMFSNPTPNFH
The experiment can be described thus: Inhibition of SAK at 10 uM.

The target in experiment [9] is Insulin receptor (Homo sapiens) (UniProt P06213). As to the kind of experiment: Inhibition of INSR at 10 uM.
Experiment [10] deals with Vascular endothelial growth factor receptor 2 (Homo sapiens) (UniProt P35968). The experiment can be described thus: Inhibition of VEGFR2 at 10 uM.
Vascular endothelial growth factor receptor 2 (Homo sapiens), sequence (P35968 whole entry): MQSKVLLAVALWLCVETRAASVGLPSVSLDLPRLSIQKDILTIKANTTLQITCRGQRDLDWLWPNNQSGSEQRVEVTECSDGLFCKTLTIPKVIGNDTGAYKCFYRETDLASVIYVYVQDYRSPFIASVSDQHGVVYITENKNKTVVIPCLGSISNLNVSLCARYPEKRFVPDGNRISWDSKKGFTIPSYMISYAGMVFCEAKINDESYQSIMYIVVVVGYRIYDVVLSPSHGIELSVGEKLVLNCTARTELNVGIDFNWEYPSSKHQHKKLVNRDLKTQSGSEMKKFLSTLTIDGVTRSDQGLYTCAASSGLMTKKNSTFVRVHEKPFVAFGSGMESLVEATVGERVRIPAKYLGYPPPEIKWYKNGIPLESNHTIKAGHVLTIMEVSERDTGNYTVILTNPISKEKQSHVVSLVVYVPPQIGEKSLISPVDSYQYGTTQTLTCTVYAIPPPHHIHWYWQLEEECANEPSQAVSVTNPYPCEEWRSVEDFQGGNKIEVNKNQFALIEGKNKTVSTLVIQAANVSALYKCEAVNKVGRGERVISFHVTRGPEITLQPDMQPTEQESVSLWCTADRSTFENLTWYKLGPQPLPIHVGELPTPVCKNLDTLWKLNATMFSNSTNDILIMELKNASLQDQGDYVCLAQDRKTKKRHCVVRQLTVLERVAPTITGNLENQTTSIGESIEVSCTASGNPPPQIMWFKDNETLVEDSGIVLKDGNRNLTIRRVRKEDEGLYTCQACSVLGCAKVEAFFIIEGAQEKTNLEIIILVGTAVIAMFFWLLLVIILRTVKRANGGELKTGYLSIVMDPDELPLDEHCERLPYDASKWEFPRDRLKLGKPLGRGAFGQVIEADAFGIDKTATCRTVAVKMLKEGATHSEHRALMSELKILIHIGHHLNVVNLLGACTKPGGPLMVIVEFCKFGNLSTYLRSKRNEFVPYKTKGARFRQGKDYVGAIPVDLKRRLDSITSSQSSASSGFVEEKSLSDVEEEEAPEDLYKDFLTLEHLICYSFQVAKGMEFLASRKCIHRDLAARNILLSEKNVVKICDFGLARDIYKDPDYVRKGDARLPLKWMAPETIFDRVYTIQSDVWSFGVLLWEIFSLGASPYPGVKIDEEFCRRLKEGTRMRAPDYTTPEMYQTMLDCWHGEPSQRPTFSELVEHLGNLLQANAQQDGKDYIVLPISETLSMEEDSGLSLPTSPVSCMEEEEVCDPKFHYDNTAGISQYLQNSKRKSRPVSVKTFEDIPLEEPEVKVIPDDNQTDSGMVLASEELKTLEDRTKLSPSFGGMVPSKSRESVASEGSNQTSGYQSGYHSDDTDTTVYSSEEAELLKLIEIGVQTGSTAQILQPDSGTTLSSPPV
In experiment [11] the target is Insulin-like growth factor 1 receptor (Homo sapiens) (UniProt P08069). As to the kind of experiment: Inhibition of IGF1R at 10 uM.
The target of experiment [12] is Serine/threonine-protein kinase PLK1 (Homo sapiens) (UniProt P53350). As to the kind of experiment: Inhibition of PLK1 at 10 uM.
Serine/threonine-protein kinase PLK1 (Homo sapiens), sequence (P53350 whole entry): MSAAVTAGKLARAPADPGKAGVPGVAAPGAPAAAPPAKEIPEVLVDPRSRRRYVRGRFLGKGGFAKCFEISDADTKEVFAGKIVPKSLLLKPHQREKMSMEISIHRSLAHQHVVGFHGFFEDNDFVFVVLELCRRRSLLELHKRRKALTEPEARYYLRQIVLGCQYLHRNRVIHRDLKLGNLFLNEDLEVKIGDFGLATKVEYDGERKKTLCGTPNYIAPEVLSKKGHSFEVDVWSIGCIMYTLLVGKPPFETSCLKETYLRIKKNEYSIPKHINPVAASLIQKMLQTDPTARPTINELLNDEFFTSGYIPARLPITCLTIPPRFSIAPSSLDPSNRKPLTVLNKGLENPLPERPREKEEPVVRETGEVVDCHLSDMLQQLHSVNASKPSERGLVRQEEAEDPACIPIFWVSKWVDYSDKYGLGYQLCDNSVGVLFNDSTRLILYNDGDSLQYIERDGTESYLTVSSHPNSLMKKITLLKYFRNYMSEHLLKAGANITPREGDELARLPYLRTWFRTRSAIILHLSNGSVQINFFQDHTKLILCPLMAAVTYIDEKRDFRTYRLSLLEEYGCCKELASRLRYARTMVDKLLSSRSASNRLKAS
The target of experiment [13] is T3, NUAK family SNF1-like kinase 1 (Homo sapiens) (UniProt O60285).
T3 sequence (whole entry): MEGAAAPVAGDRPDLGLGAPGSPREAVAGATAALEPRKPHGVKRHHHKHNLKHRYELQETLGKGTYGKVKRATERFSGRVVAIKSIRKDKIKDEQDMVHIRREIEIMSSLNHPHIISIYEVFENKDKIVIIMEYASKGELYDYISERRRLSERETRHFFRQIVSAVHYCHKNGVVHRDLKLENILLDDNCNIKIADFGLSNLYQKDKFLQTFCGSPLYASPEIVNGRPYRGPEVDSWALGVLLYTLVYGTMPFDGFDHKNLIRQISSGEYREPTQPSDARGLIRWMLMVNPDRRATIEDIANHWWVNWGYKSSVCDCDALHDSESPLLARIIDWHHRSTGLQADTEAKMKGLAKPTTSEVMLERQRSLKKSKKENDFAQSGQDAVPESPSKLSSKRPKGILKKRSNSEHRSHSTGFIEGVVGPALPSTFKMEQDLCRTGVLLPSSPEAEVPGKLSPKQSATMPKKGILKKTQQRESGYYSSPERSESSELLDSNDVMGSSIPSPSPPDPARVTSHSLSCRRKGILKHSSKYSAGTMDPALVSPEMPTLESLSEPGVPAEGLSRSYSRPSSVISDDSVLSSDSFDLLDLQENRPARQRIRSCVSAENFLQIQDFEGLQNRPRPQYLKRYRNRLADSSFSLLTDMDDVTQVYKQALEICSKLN
The experiment can be described thus: Inhibition of ARK5 at 10 uM.

In experiment [14] the target is Casein kinase II subunit alpha (Homo sapiens) (UniProt P68400). The experiment can be described thus: Inhibition of CK2alpha1 at 10 uM.
Casein kinase II subunit alpha (Homo sapiens), sequence (P68400 whole entry, looked up): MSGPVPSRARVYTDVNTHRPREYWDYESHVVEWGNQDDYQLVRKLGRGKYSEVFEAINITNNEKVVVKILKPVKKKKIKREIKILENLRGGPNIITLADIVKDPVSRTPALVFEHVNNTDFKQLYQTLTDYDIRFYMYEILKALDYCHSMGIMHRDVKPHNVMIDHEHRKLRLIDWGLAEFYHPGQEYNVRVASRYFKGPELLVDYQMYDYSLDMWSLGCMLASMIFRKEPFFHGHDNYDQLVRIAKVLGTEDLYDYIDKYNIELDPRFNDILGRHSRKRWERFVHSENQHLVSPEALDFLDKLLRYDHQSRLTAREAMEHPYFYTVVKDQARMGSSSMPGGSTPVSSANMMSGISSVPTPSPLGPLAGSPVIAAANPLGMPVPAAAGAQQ
The target in experiment [15] is Proto-oncogene tyrosine-protein kinase Src (Homo sapiens) (UniProt P12931). As to the kind of experiment: Inhibition of SRC at 10 uM.
The target of experiment [16] is T1, Mitogen-activated protein kinase 14. The experiment can be described thus: Inhibition of p38alpha by immunosorbent based kinase assay.
Experiment [17] has as its target Hepatocyte growth factor receptor (Homo sapiens) (UniProt P08581). As to the kind of experiment: Inhibition of MET at 10 uM.
The target of experiment [18] is Tyrosine-protein kinase receptor UFO (Homo sapiens) (UniProt P30530). As to the kind of experiment: Inhibition of AXL at 10 uM.

Serine/threonine-protein kinase B-raf (Homo sapiens), P15056 [V600E], sequence (P15056 whole entry V600E): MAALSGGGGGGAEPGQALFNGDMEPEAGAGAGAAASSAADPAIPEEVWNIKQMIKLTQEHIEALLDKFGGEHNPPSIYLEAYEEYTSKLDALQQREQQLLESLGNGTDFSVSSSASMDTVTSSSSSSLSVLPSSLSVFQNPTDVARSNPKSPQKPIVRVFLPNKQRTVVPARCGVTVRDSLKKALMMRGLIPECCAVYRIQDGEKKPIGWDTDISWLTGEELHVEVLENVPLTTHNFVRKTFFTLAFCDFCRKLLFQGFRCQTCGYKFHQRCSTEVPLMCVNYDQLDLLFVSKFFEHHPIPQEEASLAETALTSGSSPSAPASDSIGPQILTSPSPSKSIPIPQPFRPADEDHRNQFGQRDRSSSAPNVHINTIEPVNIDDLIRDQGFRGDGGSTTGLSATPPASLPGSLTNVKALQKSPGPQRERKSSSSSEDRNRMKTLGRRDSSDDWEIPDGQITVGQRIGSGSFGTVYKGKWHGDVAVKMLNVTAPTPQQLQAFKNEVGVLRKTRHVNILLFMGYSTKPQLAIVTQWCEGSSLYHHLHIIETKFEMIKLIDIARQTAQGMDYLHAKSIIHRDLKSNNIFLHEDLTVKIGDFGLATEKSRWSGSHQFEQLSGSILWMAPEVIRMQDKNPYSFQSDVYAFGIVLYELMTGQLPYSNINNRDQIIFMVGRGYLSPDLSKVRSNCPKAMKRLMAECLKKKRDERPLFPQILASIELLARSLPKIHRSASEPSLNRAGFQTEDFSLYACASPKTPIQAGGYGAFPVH
Hepatocyte growth factor receptor (Homo sapiens), sequence (P08581 whole entry): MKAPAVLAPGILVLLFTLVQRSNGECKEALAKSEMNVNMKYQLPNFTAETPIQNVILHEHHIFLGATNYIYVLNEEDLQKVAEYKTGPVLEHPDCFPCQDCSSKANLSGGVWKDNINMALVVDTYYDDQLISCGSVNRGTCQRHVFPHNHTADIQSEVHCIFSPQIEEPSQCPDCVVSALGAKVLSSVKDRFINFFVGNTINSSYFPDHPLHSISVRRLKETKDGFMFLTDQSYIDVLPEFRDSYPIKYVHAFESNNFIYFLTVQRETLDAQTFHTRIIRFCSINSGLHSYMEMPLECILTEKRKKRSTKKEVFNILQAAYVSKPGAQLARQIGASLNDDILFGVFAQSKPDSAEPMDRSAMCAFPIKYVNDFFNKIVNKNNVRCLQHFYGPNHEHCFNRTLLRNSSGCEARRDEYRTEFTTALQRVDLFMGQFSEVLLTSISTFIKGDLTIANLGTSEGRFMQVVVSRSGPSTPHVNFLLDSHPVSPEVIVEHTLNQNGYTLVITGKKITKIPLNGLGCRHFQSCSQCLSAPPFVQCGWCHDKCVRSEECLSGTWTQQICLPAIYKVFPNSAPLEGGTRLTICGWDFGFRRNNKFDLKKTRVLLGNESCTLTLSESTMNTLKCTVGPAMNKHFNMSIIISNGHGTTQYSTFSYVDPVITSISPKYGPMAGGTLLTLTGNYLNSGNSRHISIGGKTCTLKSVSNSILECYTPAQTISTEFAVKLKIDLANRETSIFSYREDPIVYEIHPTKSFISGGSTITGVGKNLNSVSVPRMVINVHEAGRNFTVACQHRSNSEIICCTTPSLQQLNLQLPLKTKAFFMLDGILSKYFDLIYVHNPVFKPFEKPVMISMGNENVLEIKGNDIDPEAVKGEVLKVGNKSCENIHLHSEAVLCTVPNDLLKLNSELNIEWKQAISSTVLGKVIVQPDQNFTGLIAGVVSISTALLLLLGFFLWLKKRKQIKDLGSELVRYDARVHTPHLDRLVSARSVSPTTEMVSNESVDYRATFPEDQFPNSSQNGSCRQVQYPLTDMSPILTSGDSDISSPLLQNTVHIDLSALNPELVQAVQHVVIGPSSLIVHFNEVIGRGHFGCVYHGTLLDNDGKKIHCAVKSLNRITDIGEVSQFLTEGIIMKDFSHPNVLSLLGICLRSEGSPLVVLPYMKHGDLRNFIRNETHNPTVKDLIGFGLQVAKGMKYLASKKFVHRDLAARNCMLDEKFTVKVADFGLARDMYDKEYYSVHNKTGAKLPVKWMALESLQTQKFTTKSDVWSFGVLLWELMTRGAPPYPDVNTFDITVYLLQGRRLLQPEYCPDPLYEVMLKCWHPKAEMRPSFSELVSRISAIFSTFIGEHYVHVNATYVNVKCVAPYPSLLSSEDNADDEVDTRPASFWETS

Usually IC50 stands for the concentration at which inhibition is half-maximal. Read a high IC50 as weaker potency in that assay. On to `O=C1c2ccc(Nc3ccc(F)cc3F)cc2CCc2cc(OC[C@H](O)CO)ccc21`, for which the inhibition result in experiment [1], in [2], in experiment [3], in experiment [5], in experiment [6] and in [7] was “inactive” throughout. Further, the inhibition result in experiment [8], in experiment [9], in experiment [10], in experiment [11], in experiment [12] and in [13] was “inactive” throughout. Also, the inhibition entry in experiment [14], in [15], in experiment [17] and in experiment [18] was “inactive” in each case. In addition, the IC50 came to 10400 nM in [4] and 30 nM in experiment [16].

For the molecule `O=C1c2ccc(Nc3ccc(F)cc3F)cc2CCc2ccc(OCCCN3CCOCC3)cc21`, the inhibition result in [1], in [2], in [3], in experiment [5], in experiment [6] and in experiment [7] was “inactive” each time. The inhibition result in [8], in experiment [9], in experiment [10], in experiment [11], in [12] and in [13] was “inactive” throughout. The inhibition result in [14], in experiment [15], in [17] and in experiment [18] was “inactive” throughout. For the same molecule, the IC50 was found to be 80 nM in [4] and 8 nM in [16].

With `Nc1ccccc1Nc1ccc2c(c1)CCc1c(OC[C@H](O)CO)cccc1C2=O`, the inhibition result in experiment [1], in [2], in experiment [3], in experiment [5], in experiment [6] and in [7] was “inactive” each time. Besides, the inhibition entry in [8], in experiment [9], in experiment [10], in experiment [11], in experiment [12] and in experiment [13] was “inactive” throughout. Also, the inhibition result in [14], in experiment [15], in experiment [17] and in experiment [18] was “inactive” each time. The IC50 in experiment [4] amounted to 78800 nM; in experiment [16] it was 40 nM.

In the case of `CC1(C)OC[C@H](COc2ccc3c(c2)C(=O)c2ccc(Nc4ccccc4N)cc2CC3)O1`, the inhibition entry in experiment [1], in experiment [2], in experiment [3], in experiment [5], in experiment [6] and in [7] was “inactive” throughout. Further, the inhibition result in [8], in experiment [9], in experiment [10], in experiment [11], in experiment [12] and in experiment [13] was “inactive” throughout. The inhibition entry in experiment [14], in [15], in experiment [17] and in experiment [18] was “inactive” each time. Moreover, the IC50 in [4] came out at 190 nM; in experiment [16], 30 nM.

Consider `O=C1c2ccc(Nc3ccc(F)cc3F)cc2CCc2c(O)cccc21`, for which the inhibition result in [1], in experiment [2], in [3], in experiment [5], in experiment [6] and in experiment [7] was “inactive” in each case. Also, the inhibition entry in experiment [8], in experiment [9], in experiment [10], in experiment [11], in experiment [12] and in [13] was “inactive” throughout. Also, the inhibition result in [14], in experiment [15], in [17] and in [18] was “inactive” throughout. Moreover, the results for the IC50 in [4] and in experiment [16] were 37300 nM and 20 nM, respectively.

On to `O=C1c2ccc(Nc3ccc(F)cc3F)cc2CCc2c(OCCN3CCOCC3)cccc21`, for which the inhibition result in experiment [1], in experiment [2], in experiment [3], in experiment [5], in experiment [6] and in experiment [7] was “inactive” each time. In addition, the inhibition entry in experiment [8], in [9], in experiment [10], in experiment [11], in experiment [12] and in [13] was “inactive” throughout. In addition, the inhibition result in experiment [14], in experiment [15], in experiment [17] and in experiment [18] was “inactive” throughout. Besides, the IC50 in experiment [4] came out at 200000 nM; in experiment [16] it was 30 nM.

With `O=C1c2ccc(Nc3ccc(F)cc3F)cc2CCc2ccc(OCCCO)cc21`, the inhibition result in [1], in experiment [2], in [3], in experiment [5], in [6] and in experiment [7] was “inactive” in each case. Further, the inhibition entry in experiment [8], in experiment [9], in experiment [10], in [11], in experiment [12] and in [13] was “inactive” throughout. The inhibition result in [14], in [15], in experiment [17] and in experiment [18] was “inactive” throughout. The IC50 turned out to be 190 nM in experiment [4] and 8 nM in [16].
